Laboratory results taken from patent US20240324595A1, “HERBICIDAL COMPOSITIONS” (SYNGENTA CROP PROTECTION AG, priority 2021, published 2024).

Key:
Type in all cases: in vivo
[1] = system: Setaria faberi (SETFA); experiment: Post-emergence efficacy, Setaria faberi; conditions: 15 DAA
From the text: (§1) When active ingredients are combined, the activity to be expected (E) for any given active ingredient combination obeys the so-called Colby Formula and can be calculated as follows (Colby, S. R., Calculating synergistic and antagonistic responses of herbicide combination, Weeds, Vol. 15, pages 20-22; 1967): • ppm=milligrams of active ingredient (a.i.) per litre • X=% action by first active ingredient using p ppm of the active ingredient • Y=% action by second active ingredient using q ppm of the active ingredient.
(§2) According to Colby, the expected action of active ingredients A+B using p+q ppm of active ingredient is represented by the following formula: […]
(§3) If the action actually observed (O) is greater than the expected action E then the action of the combination is super-additive, i.e. there is a synergistic effect. In mathematical terms, synergism corresponds to a positive value for the difference of (O−E). In the case of purely complementary addition of activities (expected activity), said difference (O−E) is zero. A negative value of said difference (O−E) signals a loss of activity compared to the expected activity.
(§4) The efficacy of various compositions of the present invention were tested against plants including the following species: Amaranthus retroflexus (AMARE) Cenchrus echinatus (CCHEC), Echinochloa crus-gali (ECHCG), Eleusine indica (ELEIN), Setaria faberi (SETFA) Sorghum halapense (SORHA) and Digitaria insularis (TRCIN). The compositions are applied post-emergence, and the tests evaluated at certain days-after-application (DAA) as indicated. The tests were evaluated (100=total damage to plant; 0=no damage to plant), and the results are shown below in tables B1 to B13.

[2] = system: Amaranthus retroflexus (AMARE); experiment: Post-emergence efficacy, Amaranthus retroflexus; conditions: 13 DAA
From the text: as §1, §2
If the action actually observed (O) is greater than the expected action E then the action of the combination is super-additive, i.e. there is a synergistic effect. […]
as §4

[3] = system: Echinochloa crus-gali (ECHCG); experiment: Post-emergence efficacy, Echinochloa crus-gali
From the text: as §1, §2, §3, §4

[4] = system: Digitaria insularis (TRCIN); experiment: Post-emergence efficacy, Digitaria insularis
From the text: as §1, §2, §3, §4

[5] = system: Eleusine indica (ELEIN); experiment: Post-emergence efficacy, Eleusine indica; conditions: 15 DAA
From the text: as §1, §2, §3, §4

[6] = system: Cenchrus echinatus (CCHEC); experiment: Post-emergence efficacy, Cenchrus echinatus; conditions: 14 DAA
From the text: as §1, §2, §3, §4

[7] = system: Sorghum halapense (SORHA); experiment: Post-emergence efficacy, Sorghum halapense; conditions: 15 DAA
From the text: as §1, §2, §3, §4

Structure (SMILES): O=C(O)CC[n+]1ccc(-c2cccnn2)cn1.[Cl-] [Compound B4c.27]
- Observed (100=total damage to plant; 0=no damage) ([1]; rate 37.5 g/ha): 37

Structure (SMILES): CCOC(=O)C(Cl)Cc1cc(-n2nc(C)n(C(F)F)c2=O)c(F)cc1Cl (stereo not drawn) [Compound B3b, carfentrazone-ethyl, reference compound]
- Observed (100=total damage to plant; 0=no damage) ([2]; rate 3.75 g/ha): 75

Structure (SMILES): CCOC(=O)C1(C)CC(c2cc(-n3c(=O)cc(C(F)(F)F)n(C)c3=O)c(F)cc2Cl)=NO1 (stereo not drawn) [Compound B3l, 3-(2-chloro-4-fluoro-5-(3-methyl-2,6-dioxo-4-trifluoromethyl-3,6-dihydropyrimidin-1(2H)-yl)phenyl)-5-methyl-4,5-dihydroisoxazole-5-carboxylic acid ethyl ester, reference compound]
- Observed (100=total damage to plant; 0=no damage) ([3]; Table B12, POST, 13 DAA, rate 0.94 g/ha (B3l)): 33
- Observed (100=total damage to plant; 0=no damage) ([3]; Table B12, POST, 13 DAA, rate 3.75 g/ha): 73

Structure (SMILES): CCOC(=O)COc1ncccc1Oc1cc(-n2c(=O)cc(C(F)(F)F)n(C)c2=O)c(F)cc1Cl [Compound B3c, epyrifenacil, reference compound]
- Observed (100=total damage to plant; 0=no damage) ([4]; POST, 16 DAA, rate 1 g/ha): 33
- Observed (100=total damage to plant; 0=no damage) ([5]; rate 25 g/ha (B3c)): 16

Structure (SMILES): C#CCN1C(=O)C(F)(F)Oc2cc(F)c(-n3c(=O)n(C)c(=S)n(C)c3=O)cc21 [Compound B3k, trifludimoxazin, reference compound]
- Observed (100=total damage to plant; 0=no damage) ([3]; Table B11, POST, 20 DAA, rate 4 g/ha): 38
- Observed (100=total damage to plant; 0=no damage) ([3]; Table B11, POST, 20 DAA, rate 30 g/ha): 31

Structure (SMILES): c1cc[n+]2c(c1)-c1cccc[n+]1CC2 [Compound B4b1, diquat dibromide, reference compound]
- Observed (100=total damage to plant; 0=no damage) ([3]; Table B13, POST, 15 DAA, rate 60 g/ha): 43

Structure (SMILES): CC#Cc1ccc(C2=C(OC(=O)OC)C3CCC(C3)C2=O)c(OC)c1 (stereo not drawn) [Ic]
- Observed (100=total damage to plant; 0=no damage) ([4]; POST, 14 DAA, rate 100 g/ha): 5
- Observed (100=total damage to plant; 0=no damage) ([4]; POST, 16 DAA, rate 3.125 g/ha): 15
- Observed (100=total damage to plant; 0=no damage) ([4]; Table B8, POST, 14 DAA, rate 0.47 g/ha): 0
- Observed (100=total damage to plant; 0=no damage) ([4]; Table B8, POST, 14 DAA, rate 0.94 g/ha): 0
- Observed (100=total damage to plant; 0=no damage) ([4]; Table B8, POST, 14 DAA, rate 1.88 g/ha): 11
- Observed (100=total damage to plant; 0=no damage) ([6]; rate 3 g/ha): 50
- Observed (100=total damage to plant; 0=no damage) ([6]; rate 6 g/ha): 72
- Observed (100=total damage to plant; 0=no damage) ([6]; rate 12.5 g/ha): 79
- Observed (100=total damage to plant; 0=no damage) ([6]; rate 25 g/ha): 79
- Observed (100=total damage to plant; 0=no damage) ([5]; rate 12.5 g/ha): 72
- Observed (100=total damage to plant; 0=no damage) ([5]; rate 25 g/ha (Ic)): 79
- Observed (100=total damage to plant; 0=no damage) ([1]; rate 3 g/ha): 10
- Observed (100=total damage to plant; 0=no damage) ([1]; rate 6 g/ha): 29
- Observed (100=total damage to plant; 0=no damage) ([2]; rate 7.5 g/ha): 4
- Observed (100=total damage to plant; 0=no damage) ([3]; Table B7, POST, 20 DAA, rate 3.125 g/ha): 14
- Observed (100=total damage to plant; 0=no damage) ([3]; Table B7, POST, 20 DAA, rate 25 g/ha): 87
- Observed (100=total damage to plant; 0=no damage) ([3]; Table B10, POST, 15 DAA, rate 3.125 g/ha): 45
- Observed (100=total damage to plant; 0=no damage) ([3]; Table B10, POST, 15 DAA, rate 6.25 g/ha): 50
- Observed (100=total damage to plant; 0=no damage) ([3]; Table B10, POST, 15 DAA, rate 12.5 g/ha): 60
- Observed (100=total damage to plant; 0=no damage) ([3]; Table B11, POST, 20 DAA, rate 3.125 g/ha): 14
- Observed (100=total damage to plant; 0=no damage) ([3]; Table B12, POST, 13 DAA, rate 0.94 g/ha (Ic)): 3
- Observed (100=total damage to plant; 0=no damage) ([3]; Table B12, POST, 13 DAA, rate 1.88 g/ha): 24
- Observed (100=total damage to plant; 0=no damage) ([3]; Table B12, POST, 13 DAA, rate 7.5 g/ha): 54
- Observed (100=total damage to plant; 0=no damage) ([3]; Table B13, POST, 15 DAA, rate 3.125 g/ha): 45
- Observed (100=total damage to plant; 0=no damage) ([3]; Table B13, POST, 15 DAA, rate 6.25 g/ha): 50
- Observed (100=total damage to plant; 0=no damage) ([3]; Table B13, POST, 15 DAA, rate 12.5 g/ha): 60
- Observed (100=total damage to plant; 0=no damage) ([7]; rate 3.125 g/ha): 28
- Observed (100=total damage to plant; 0=no damage) ([7]; rate 6.25 g/ha): 45
- Observed (100=total damage to plant; 0=no damage) ([7]; rate 12.5 g/ha): 75

Structure (SMILES): O=C(O)CNCP(=O)(O)O [Compound B2c, glyphosate, reference compound]
- Observed (100=total damage to plant; 0=no damage) ([6]; rate 125 g/ha): 1

Structure (SMILES): CP(=O)(O)CC[C@H](N)C(=O)O [Compound B1c, L-glufosinate/glufosinate-P, reference compound]
- Observed (100=total damage to plant; 0=no damage) ([4]; POST, 14 DAA, rate 600 g/ha): 60

Structure (SMILES): C#CCN1C(=O)COc2cc(F)c(N3C(=O)C4=C(CCCC4)C3=O)cc21 [Compound B3d, flumioxazin, reference compound]
- Observed (100=total damage to plant; 0=no damage) ([3]; Table B7, POST, 20 DAA, rate 4 g/ha): 8
- Observed (100=total damage to plant; 0=no damage) ([3]; Table B7, POST, 20 DAA, rate 15 g/ha): 49

Structure (SMILES): COC(=O)CCNC(=O)C(C)Sc1cc(-n2c(=O)cc(C(F)(F)F)n(C)c2=O)c(F)cc1Cl (stereo not drawn) [Compound B3j, tiafenacil, reference compound]
- Observed (100=total damage to plant; 0=no damage) ([3]; Table B10, POST, 15 DAA, rate 8 g/ha): 40
- Observed (100=total damage to plant; 0=no damage) ([3]; Table B10, POST, 15 DAA, rate 16 g/ha): 55

Structure (SMILES): CS(=O)(=O)NC(=O)c1cc(Oc2ccc(C(F)(F)F)cc2Cl)ccc1[N+](=O)[O-] [Compound B3e, fomesafen, reference compound]
- Observed (100=total damage to plant; 0=no damage) ([4]; Table B8, POST, 14 DAA, rate 7.5 g/ha): 15
- Observed (100=total damage to plant; 0=no damage) ([4]; Table B8, POST, 14 DAA, rate 15 g/ha): 20
- Observed (100=total damage to plant; 0=no damage) ([4]; Table B8, POST, 14 DAA, rate 30 g/ha): 35

Structure (SMILES): Cc1nn(-c2cc(NS(C)(=O)=O)c(Cl)cc2Cl)c(=O)n1C(F)F [Compound B3i, sulfentrazone, reference compound]
- Observed (100=total damage to plant; 0=no damage) ([7]; rate 60 g/ha): 13
